Assay results as given in patent US20240287138A1, “CYCLIC PEPTIDES FOR INHIBITING TNF RECEPTOR 1 ACTIVITY” (Merck Sharp & Dohme LLC, priority 2023, published 2024).
pKd: −log10 of the molar value. Numbered stars: 1 amine (or outer) side, 2 acyl side, 3 side chain; on linkers, the order of the positions; unused ones are H or OH. Bridge positions count the residues as written; N and C are the ends. Square brackets hold non-standard residues; d marks the D form. Peptide text beside a SMILES is read from it. Trp(βS-Me,7-OMe) = COc1cccc2c([C@H](C)[C@H](N)C(=O)O)c[nH]c12; Ala(indazol-1-yl) = N[C@@H](Cn1ncc2ccccc21)C(=O)O; Trp(7-CN) = N#Cc1cccc2c(C[C@H](N)C(=O)O)c[nH]c12; Trp(7-Cl) = N[C@@H](Cc1c[nH]c2c(Cl)cccc12)C(=O)O; Phe(3-CONH2) = NC(=O)c1cccc(C[C@H](N)C(=O)O)c1; Phe(4-CONH2) = NC(=O)c1ccc(C[C@H](N)C(=O)O)cc1; Phe(4-COOH) = N[C@@H](Cc1ccc(C(=O)O)cc1)C(=O)O; 4Pal(3S-Me) = C[C@@H](c1ccncc1)[C@H](N)C(=O)O; Trp(7-aza) = N[C@@H](Cc1c[nH]c2ncccc12)C(=O)O; Pip(5R-OH) = O=C(O)[C@@H]1CC[C@@H](O)CN1; αMeW = C[C@](N)(Cc1c[nH]c2ccccc12)C(=O)O; X1 = O=C([C@@H]1CC[C@H](N[*:1])C1)[*:2]; Pip(4-aza) = O=C(O)[C@@H]1CNCCN1; 4Pal = N[C@@H](Cc1ccncc1)C(=O)O; Abu(4-CN) = N#CCC[C@H](N)C(=O)O; Gly(cBu) = N[C@H](C(=O)O)C1CCC1; NMeE = CN[C@@H](CCC(=O)O)C(=O)O; dHyp = O=C(O)[C@H]1C[C@H](O)CN1; Cit = NC(=O)NCCC[C@H](N)C(=O)O; Gly(N-CH2CH2OH) = O=C(O)CNCCO; Ahp(2) = CCCCC[C@H](N)C(=O)O; αMeS = C[C@](N)(CO)C(=O)O; Nle = CCCC[C@H](N)C(=O)O; Sar = CNCC(=O)O

The molecules below were run against T1, human soluble TNFR1 (sTNFR1) (Homo sapiens, UniProt P19438) (assay: Human sTNFR1-peptide displacement assay (LanthaScreen Eu TR-FRET binding assay)).
T1 construct: made in house; host or cells: Sf21 (baculovirus)
T1 sequence (P19438 with tags, fused parts or gaps): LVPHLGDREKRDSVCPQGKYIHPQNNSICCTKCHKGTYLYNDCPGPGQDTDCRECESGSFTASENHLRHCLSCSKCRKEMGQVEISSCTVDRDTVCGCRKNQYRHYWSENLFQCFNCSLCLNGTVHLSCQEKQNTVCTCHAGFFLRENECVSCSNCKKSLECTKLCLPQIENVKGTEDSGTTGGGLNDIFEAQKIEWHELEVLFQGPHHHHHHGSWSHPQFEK
In short: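 Readout is the 665/615 nm TR-FRET ratio (Eu anti-His donor, streptavidin-Alexa647 acceptor), normalized to DMSO and saturating displacer, fit by Morrison-based five-parameter logistic for Kd^app. His-tagged sTNFR1 (1-211) prebound to 100 nM biotinylated peptide SEQ ID NO.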
`COc1cccc2c([C@H](C)[C@@H]3NC(=O)CN(C)C(=O)[C@H](Cc4cccc(C(N)=O)c4)NC(=O)[C@H](Cc4ccc(C(=O)O)cc4)NC(=O)[C@](C)(CO)NC(=O)[C@H](Cc4c[nH]c5c(Cl)cccc45)NC(=O)[C@H](Cc4ccncc4)NC(=O)[C@H](CC(N)=O)NC(=O)[C@H]4C[C@H](O)CN4C(=O)[C@H](Cc4c[nH]c5ccccc45)NC(=O)[C@@H]4CC[C@@H](O)CN4C(=O)[C@H](Cc4ccncc4)NC(=O)[C@H](CCCNC(N)=O)NC(=O)[C@@H]4CC[C@@H](C4)NC3=O)c[nH]c12` [SEQ ID NO. 54] (cyclo([4Pal][Trp(7-Cl)][αMeS][Phe(4-COOH)][Phe(3-CONH2)][Sar][Trp(βS-Me,7-OMe)][X1][Cit][4Pal][Pip(5R-OH)]W[dHyp]N)) gave a pKd of 9.62. `CCCC[C@@H]1NC(=O)CSC[C@@H](C(N)=O)NC(=O)[C@](C)(Cc2c[nH]c3ccccc23)NC(=O)CN(C)C(=O)[C@H](Cc2ccc(O)cc2)NC(=O)[C@H](Cc2ccc(C(=O)O)cc2)NC(=O)[C@](C)(CO)NC(=O)[C@H](Cc2c[nH]c3c(Cl)cccc23)NC(=O)[C@H](Cc2ccncc2)NC(=O)[C@H](CC(N)=O)NC(=O)[C@H](CCC(=O)O)N(C)C(=O)[C@H](Cc2c[nH]c3ncccc23)NC(=O)[C@H](C2CCC2)NC(=O)[C@H](Cc2ccncc2)NC1=O` [SEQ ID NO. 56] ({CH2CO}-[Nle][4Pal][Gly(cBu)][Trp(7-aza)][NMeE]N[4Pal][Trp(7-Cl)][αMeS][Phe(4-COOH)]Y[Sar][αMeW]C-NH2; thioether N-14) gave a pKd of 8.70. Work on `CCCCC[C@@H]1NC(=O)[C@@H]2CC[C@@H](C2)NC(=O)[C@H]([C@@H](C)c2c[nH]c3c(OC)cccc23)NC(=O)CN(C)C(=O)[C@H](Cc2ccc(C(N)=O)cc2)NC(=O)[C@H](Cc2ccc(C(N)=O)cc2)NC(=O)[C@](C)(CO)NC(=O)[C@H](Cc2c[nH]c3c(C#N)cccc23)NC(=O)[C@H](Cc2ccc(C(=O)O)cc2)NC(=O)[C@H](CC(N)=O)NC(=O)[C@H]2C[C@H](O)CN2C(=O)[C@H](Cc2c[nH]c3ccccc23)NC(=O)[C@H](CCC(N)=O)NC(=O)[C@H]([C@@H](C)c2ccncc2)NC1=O` [SEQ ID NO. 70] (cyclo([Ahp(2)][4Pal(3S-Me)]QW[dHyp]N[Phe(4-COOH)][Trp(7-CN)][αMeS][Phe(4-CONH2)][Phe(4-CONH2)][Sar][Trp(βS-Me,7-OMe)][X1])) yielded a pKd of 9.92. `CCCC[C@@H]1NC(=O)[C@@H]2CC[C@@H](C2)NC(=O)[C@H]([C@@H](C)c2c[nH]c3c(OC)cccc23)NC(=O)CN(C)C(=O)[C@H](Cc2ccc(O)cc2)NC(=O)[C@H](Cc2ccc(C(=O)O)cc2)NC(=O)[C@](C)(CO)NC(=O)[C@H](Cc2c[nH]c3c(Cl)cccc23)NC(=O)[C@H](Cc2ccncc2)NC(=O)[C@H](CC(N)=O)NC(=O)CN(CCO)C(=O)[C@H](Cc2c[nH]c3ccccc23)NC(=O)[C@@H]2CNCCN2C(=O)[C@H](Cc2ccncc2)NC1=O` [SEQ ID NO. 72] (cyclo([4Pal][Trp(7-Cl)][αMeS][Phe(4-COOH)]Y[Sar][Trp(βS-Me,7-OMe)][X1][Nle][4Pal][Pip(4-aza)]W[Gly(N-CH2CH2OH)]N)) gave a pKd of 10.05. For `CCCC[C@@H]1NC(=O)[C@@H]2CC[C@@H](C2)NC(=O)[C@H]([C@@H](C)c2c[nH]c3c(OC)cccc23)NC(=O)CN(C)C(=O)[C@H](Cc2ccc(O)cc2)NC(=O)[C@H](Cc2ccc(C(N)=O)cc2)NC(=O)[C@](C)(CO)NC(=O)[C@H](Cc2c[nH]c3c(Cl)cccc23)NC(=O)[C@H](Cc2ccncc2)NC(=O)[C@H](CC(N)=O)NC(=O)[C@H](CCC(=O)O)N(C)C(=O)[C@H](Cn2ncc3ccccc32)NC(=O)[C@@H]2CC[C@@H](O)CN2C(=O)[C@H](Cc2ccncc2)NC1=O` [SEQ ID NO. 74] (cyclo([4Pal][Trp(7-Cl)][αMeS][Phe(4-CONH2)]Y[Sar][Trp(βS-Me,7-OMe)][X1][Nle][4Pal][Pip(5R-OH)][Ala(indazol-1-yl)][NMeE]N)), the pKd was 10.10. `CCCCC[C@@H]1NC(=O)[C@@H]2CC[C@@H](C2)NC(=O)[C@H]([C@@H](C)c2c[nH]c3c(OC)cccc23)NC(=O)CN(C)C(=O)[C@H](Cc2ccc(C(N)=O)cc2)NC(=O)[C@H](Cc2ccc(C(N)=O)cc2)NC(=O)[C@](C)(CO)NC(=O)[C@H](Cc2c[nH]c3c(C#N)cccc23)NC(=O)[C@H](Cc2ccc(C(=O)O)cc2)NC(=O)[C@H](CC(N)=O)NC(=O)[C@H]2C[C@H](O)CN2C(=O)[C@H](Cc2c[nH]c3ccccc23)NC(=O)[C@H](CCC#N)NC(=O)[C@H]([C@@H](C)c2ccncc2)NC1=O` [SEQ ID NO. 79] (cyclo([Ahp(2)][4Pal(3S-Me)][Abu(4-CN)]W[dHyp]N[Phe(4-COOH)][Trp(7-CN)][αMeS][Phe(4-CONH2)][Phe(4-CONH2)][Sar][Trp(βS-Me,7-OMe)][X1])) showed a pKd of 9.82.
